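The concentration for 50% growth inhibition is given as GI50. TGI: total growth inhibition.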
Key:
Test in all cases: inhibition of tumour cell growth, NCI panel, 384-well format
NCI-H226 lung = tested on: NCI-H226 lung
NCI-H23 lung = tested on: NCI-H23 lung
NCI-H322M lung = tested on: NCI-H322M lung
NCI-H460 NSCLC = tested on: NCI-H460 NSCLC
NCI-H522 lung = tested on: NCI-H522 lung
NCI/ADR-RES ovarian = tested on: NCI/ADR-RES ovarian
OVCAR-3 ovarian = tested on: OVCAR-3 ovarian
OVCAR-4 ovarian = tested on: OVCAR-4 ovarian
OVCAR-5 ovarian = tested on: OVCAR-5 ovarian
OVCAR-8 ovarian = tested on: OVCAR-8 ovarian
PC-3 prostate = tested on: PC-3 prostate
RPMI-8226 leukemia = tested on: RPMI-8226 leukemia
RXF 393 renal = tested on: RXF 393 renal
SF-268 CNS = tested on: SF-268 CNS
SF-295 CNS = tested on: SF-295 CNS
SF-539 CNS = tested on: SF-539 CNS
SK-MEL-2 melanoma = tested on: SK-MEL-2 melanoma
SK-MEL-28 melanoma = tested on: SK-MEL-28 melanoma
SK-MEL-5 melanoma = tested on: SK-MEL-5 melanoma
SK-OV-3 ovarian = tested on: SK-OV-3 ovarian
SN12C renal = tested on: SN12C renal
SNB-19 CNS = tested on: SNB-19 CNS
SNB-75 CNS = tested on: SNB-75 CNS
SR leukemia = tested on: SR leukemia
SW-620 colon = tested on: SW-620 colon
T-47D breast = tested on: T-47D breast
TK-10 renal = tested on: TK-10 renal
U251 glioblastoma = tested on: U251 glioblastoma
UACC-257 melanoma = tested on: UACC-257 melanoma
UACC-62 melanoma = tested on: UACC-62 melanoma

Cc1[nH]ncc1-c1cc2nc(C3CC4CCN3CC4)[nH]c(=O)c2s1 (stereo not drawn)
TGI (NCI-H226 lung): 15.9 µM | GI50 (NCI-H23 lung): 1.36 µM | TGI (NCI-H23 lung): 6.79 µM | GI50 (NCI-H322M lung): 6.94 µM | TGI (NCI-H322M lung): 34.3 µM | GI50 (NCI-H460 NSCLC): 1.19 µM | TGI (NCI-H460 NSCLC): 5.55 µM | GI50 (NCI-H522 lung): 0.381 µM | TGI (NCI-H522 lung): 7.5 µM | GI50 (NCI/ADR-RES ovarian): 16.2 µM | TGI (NCI/ADR-RES ovarian): 65.8 µM | GI50 (OVCAR-3 ovarian): 2.93 µM | TGI (OVCAR-3 ovarian): 18.3 µM | GI50 (OVCAR-4 ovarian): 21.4 µM | TGI (OVCAR-4 ovarian): 74.9 µM | GI50 (OVCAR-5 ovarian): 4.24 µM | TGI (OVCAR-5 ovarian): > 100 µM | GI50 (OVCAR-8 ovarian): 8.87 µM | TGI (OVCAR-8 ovarian): > 100 µM | GI50 (PC-3 prostate): 8.96 µM | TGI (PC-3 prostate): > 100 µM | GI50 (RPMI-8226 leukemia): 10.3 µM | TGI (RPMI-8226 leukemia): 22 µM | GI50 (RXF 393 renal): 2.27 µM | TGI (RXF 393 renal): 7.19 µM | GI50 (SF-268 CNS): 1.42 µM | TGI (SF-268 CNS): 4.23 µM | GI50 (SF-295 CNS): 1.19 µM | TGI (SF-295 CNS): 49.4 µM | GI50 (SF-539 CNS): 1.31 µM | TGI (SF-539 CNS): 7.72 µM | GI50 (SK-MEL-2 melanoma): 6.55 µM | TGI (SK-MEL-2 melanoma): 18.4 µM | GI50 (SK-MEL-28 melanoma): 6.67 µM | TGI (SK-MEL-28 melanoma): 23.2 µM | GI50 (SK-MEL-5 melanoma): 2.18 µM | TGI (SK-MEL-5 melanoma): 7.13 µM | GI50 (SK-OV-3 ovarian): 17.8 µM | TGI (SK-OV-3 ovarian): > 100 µM | GI50 (SN12C renal): 1.78 µM | TGI (SN12C renal): 17.9 µM | GI50 (SNB-19 CNS): 9.66 µM | TGI (SNB-19 CNS): > 100 µM | GI50 (SNB-75 CNS): 2.06 µM | TGI (SNB-75 CNS): 7.46 µM | GI50 (SR leukemia): 0.178 µM | TGI (SR leukemia): 0.366 µM | GI50 (SW-620 colon): 0.333 µM | GI50 (T-47D breast): 24.9 µM | TGI (T-47D breast): > 100 µM | GI50 (TK-10 renal): 9.31 µM | TGI (TK-10 renal): > 79.3 µM | GI50 (U251 glioblastoma): 1.38 µM | TGI (U251 glioblastoma): 74.2 µM | GI50 (UACC-257 melanoma): 15.2 µM | TGI (UACC-257 melanoma): 43.8 µM | GI50 (UACC-62 melanoma): 2.88 µM | TGI (UACC-62 melanoma): 15.5 µM
